Test results from patent US11083717B2, “Compositions and methods for drug sensitization of parasites” (The Texas A&M University System, priority 2015, dated 2021).
Like-named read-outs stand apart in the source and are kept apart here.

Columns and labels:
[1] = tested on: S. cerevisiae; test: in vitro; conditions: Saccharomyces cerevisiae
From the text: (§1) These tests included an IL-12 mouse model test to determine compound efficacy, verification of MIC50 for CP, cytotoxicity test for fibroblasts and yeast to determine potential toxic effects, a Human ether-a-go-go-related gene (hERG) test to determine potential cardiotoxicity, an AMES test tp determine mutagenic potential, a Safety Screen 44 test to determine common negative off-target drug interastion (Eurofins Cerep, SA, France), a cytochrome P450 (CYP) test to determine potential liver toxicity, a maximum tolerated dose, test, a Pharmacokinetics (PK) test to determine fate of the substance administered to a living organism tests for plasma stability in human and mouse, to measure the degradation of compound in plasma MClint and HClint test to determine in vitro intrinsic clearance for Mouse and Human, and kinetic solubility and plasma protein binding tests in mouse and human.

[2] = tested on: human fibroblast; test: in vitro
From the text: as §1

Row | SMILES | concentrations at which not toxic, S. cerevisiae cytotoxicity testing [1] [µM] | concentrations at which not toxic, human fibroblast cytotoxicity testing ([2]; human) [µM] | concentrations at which not toxic, human fibroblast cytotoxicity testing [2] [µM]
1 | CC(C)NC(=O)Nc1ccc(Oc2nc3ccc(Cl)cc3s2)c[n+]1[O-] [NZ-391, 1-{5-[(6-chloro-1,3-benzothiazol-2-yl)oxy]-1-oxo-1λ^5-pyridin-2-yl}-3-(propan-2-yl)urea] | ≥ 100 | ≥ 100 | –
2 | CNC(=O)Cc1ccc(Oc2nc3ccc(Cl)cc3s2)cc1OC [NZ-392, 2-{4-[(6-chloro-1,3-benzothiazol-2-yl)oxy]-2-methoxyphenyl}-N-methylacetamide] | ≥ 100 | – | ≥ 100
3 | CC(C)NC(=O)Nc1ccc(Oc2nc3cc(Cl)c(Cl)cc3s2)cc1 [NZ-393, 1-{4-[(5,6-dichloro-1,3-benzothiazol-2-yl)oxy]phenyl}-3-(propan-2-yl)urea] | ≥ 100 | – | ≥ 100
4 | CNC(=O)C(C)c1ccc(Oc2nc3cc(Cl)c(Cl)cc3s2)cc1 (stereo not drawn) [NZ-394, 2-{4-[(5,6-dichloro-1,3-benzothiazol-2-yl)oxy]phenyl}-N-methylpropanamide] | ≥ 100 | ≥ 100 | –
5 | COC(=O)Cn1ccc(Oc2nc3ccc(Cl)cc3s2)cc1=O [NZ-396, methyl 2-{4-[(6-chloro-1,3-benzothiazol-2-yl)oxy]-2-oxo-1,2-dihydropyridin-1-yl}acetate] | ≥ 100 | ≥ 100 | –
6 | O=C(O)Cn1ccc(Oc2nc3ccc(Cl)cc3s2)cc1=O [NZ-397, 2-{4-[(6-chloro-1,3-benzothiazol-2-yl)oxy]-2-oxo-1,2-dihydropyridin-1-yl}acetic acid] | ≥ 100 | – | ≥ 100
7 | O=C(O)Cc1ccc(Oc2nc3cc(F)c(F)cc3s2)cc1 [NZ-399, 2-{4-[(5,6-difluoro-1,3-benzothiazol-2-yl)oxy]phenyl}acetic acid] | ≥ 100 | – | ≥ 100
8 | CNC(=O)Cc1ccc(Oc2cnc3cc(Cl)ccc3n2)cc1O [NZ-402, 2-{4-[(6-chloroquinoxalin-2-yl)oxy]-2-hydroxyphenyl}-N-methylacetamide] | ≥ 100 | – | ≥ 100
9 | CC(C)NC(=O)Cn1ccc(Oc2nc3ccc(Cl)cc3s2)cc1=O [NZ-404, 2-{4-[(6-chloro-1,3-benzothiazol-2-yl)oxy]-2-oxo-1,2-dihydropyridin-1-yl}-N-(propan-2-yl)acetamide] | ≥ 100 | ≥ 100 | –
10 | CC(C)NC(=O)Cc1ccc(O)cc1Oc1nc2ccc(F)cc2s1 [NZ-406, 2-{2-[(6-fluoro-1,3-benzothiazol-2-yl)oxy]-4-hydroxyphenyl}-N-(propan-2-yl)acetamide] | ≥ 100 | ≥ 100 | –
11 | CC(C)NC(=O)Cc1ccc(Oc2nc3cc(F)c(F)cc3s2)cc1O [NZ-407, 2-{4-[(5,6-difluoro-1,3-benzothiazol-2-yl)oxy]-2-hydroxyphenyl}-N-(propan-2-yl)acetamide] | ≥ 100 | ≥ 100 | –
12 | CNC(=O)C(C)c1ccc(Oc2nc3ccc(F)cc3s2)cc1O (stereo not drawn) [NZ-408, 2-{4-[(6-fluoro-1,3-benzothiazol-2-yl)oxy]-2-hydroxyphenyl}-N-methylpropanamide] | ≥ 100 | ≥ 100 | –
13 | CC(C)(C)OC(=O)Nc1ccc(Oc2nc3ccc(F)cc3s2)cc1 [NZ-412, tert-butyl N-{4-[(6-fluoro-1,3-benzothiazol-2-yl)oxy]phenyl}carbamate] | ≥ 100 | ≥ 100 | –
14 | Nc1ccc(Oc2nc3ccc(F)cc3s2)cc1 [NZ-413, 4-[(6-fluoro-1,3-benzothiazol-2-yl)oxy]aniline] | ≥ 100 | ≥ 100 | –
15 | CC(C)(C)OC(=O)NCCC(=O)Nc1ccc(Oc2nc3ccc(F)cc3s2)cc1 [NZ-414, tert-butyl N-[2-({4-[(6-fluoro-1,3-benzothiazol-2-yl)oxy]phenyl}carbamoyl)ethyl]carbamate] | ≥ 100 | ≥ 100 | –
16 | CC(C)(C)OC(=O)NCC(=O)Nc1ccc(Oc2nc3ccc(F)cc3s2)cc1 [NZ-415, tert-butyl N-[({4-[(6-fluoro-1,3-benzothiazol-2-yl)oxy]phenyl}carbamoyl)methyl]carbamate] | ≥ 100 | ≥ 100 | –
17 | NCCC(=O)Nc1ccc(Oc2nc3ccc(F)cc3s2)cc1 [NZ-416, 3-amino-N-{4-[(6-fluoro-1,3-benzothiazol-2-yl)oxy]phenyl}propanamide] | ≥ 100 | ≥ 100 | –
18 | O=C(O)Cn1ccc(Oc2nc3ccc(F)cc3s2)cc1=O [NZ-418, 2-{4-[(6-fluoro-1,3-benzothiazol-2-yl)oxy]-2-oxo-1,2-dihydropyridin-1-yl}acetic acid] | ≥ 100 | ≥ 100 | –
19 | CNC(=O)Cn1ccc(Oc2nc3ccc(F)cc3s2)cc1=O [NZ-419, 2-{4-[(6-fluoro-1,3-benzothiazol-2-yl)oxy]-2-oxo-1,2-dihydropyridin-1-yl}-N-methylacetamide] | ≥ 100 | ≥ 100 | –
20 | CC(=O)Nc1ccc(Oc2nc3ccc(F)cc3s2)cc1 [NZ-420, N-{4-[(6-fluoro-1,3-benzothiazol-2-yl)oxy]phenyl}acetamide] | ≥ 100 | ≥ 100 | –
21 | O=C(O)Cc1c(F)cc(Oc2nc3ccc(Cl)cc3s2)cc1F [NZ-458, 2-{4-[(6-chloro-1,3-benzothiazol-2-yl)oxy]-2,6-difluorophenyl}acetic acid] | ≥ 100 | ≥ 100 | –
22 | O=C(Nc1ccc(Oc2nc3ccc(Cl)cc3s2)cc1)N1CCNCC1 [NZ-509, N-{4-[(6-chloro-1,3-benzothiazol-2-yl)oxy]phenyl}piperazine-1-carboxamide] | ≥ 100 | ≥ 100 | –
23 | CC(C(=O)N1CCN(C(C)C)CC1)c1ccc(Oc2nc3ccc(Cl)cc3s2)cc1 (stereo not drawn) [NZ-510, 2-{4-[(6-chloro-1,3-benzothiazol-2-yl)oxy]phenyl}-1-[4-(propan-2-yl]piperazin-1-yl]propan-1-one] | ≥ 100 | ≥ 100 | –
24 | CC(C(=O)N1CCN(C2CC2)CC1)c1ccc(Oc2nc3ccc(Cl)cc3s2)cc1 (stereo not drawn) [NZ-511, 2-{4-[(6-chloro-1,3-benzothiazol-2-yl)oxy]phenyl}-1-(4-cyclopropylpiperazin-1-yl)propan-1-one] | ≥ 100 | ≥ 100 | –
25 | CC(C(=O)N1CCN(CC(F)(F)F)CC1)c1ccc(Oc2nc3ccc(Cl)cc3s2)cc1 (stereo not drawn) [NZ-512] | ≥ 100 | ≥ 100 | –
26 | CC(C(=O)N1CCN(C2COC2)CC1)c1ccc(Oc2nc3ccc(Cl)cc3s2)cc1 (stereo not drawn) [NZ-513, 2-{4-[(6-chloro-1,3-benzothiazol-2-yl)oxy]phenyl}-1-[4-(oxetan-3-yl)piperazin-1-yl]propan-1-one] | ≥ 100 | ≥ 100 | –
27 | CC(C(=O)NCC(O)CO)c1ccc(Oc2cnc3cc(Cl)ccc3n2)cc1 (stereo not drawn) [NZ-534, 2-{4-[(6-chloroquinoxalin-2-yl)oxy]phenyl}-N-(2,3-dihydroxypropyl)propanamide] | ≥ 100 | ≥ 100 | –
